Reference: patent publication US8834841B2, “Imaging agents” (priority 2005, dated 2014)

Columns and labels:
A549 lung carcinoma = test: in vitro amino acid uptake, A549 cells; assay type: cell-based, human
Source text: (§1) The inventive compounds have been evaluated in vitro for tumor binding specificity (i.e. uptake cells) using a variety of tumor cell lines available in the art, along with reference compounds such as Me-AIB and BCH. Detailed description of these assays can be found in Martarello et al. (2002) Journal of Medicinal Chemistry, 45:2250-2259 and McConathy et al. (2003) Nuclear Medicine and Biology, 30:477-490. These, so called “amino acid uptake studies” are typically carried out with radiolabeled compounds in at least five phenotypically different human tumor cell lines (e.g. A549 lung carcinoma, MB468 breast carcinoma, DU145 prostate carcinoma, SKOV3 ovarian carcinoma, and U87 glial blastoma). These tumor cell lines can be grown either in vitro or in vivo with severe combined immunodeficiency (SCID) mice as a host. The fore-mentioned tumor cell lines are available at the Winship Cancer Institute of Emory University.
(§2) For the in vitro amino acid uptake studies, all cells can be grown to monolayer confluency in T-175 culture flasks [Corning, Corning, N.Y.] (approx. 1×10^8 cells/flask) in Dulbecco's Modified Eagle's Medium (DMEM) [Sigma, St. Louis, Mo.] in a humidified incubator (37° C., 5% CO2/95% air). Media are supplemented with 10% fetal calf serum [Hyclone, Logan, Utah], and antibiotics (10,000 U/ml penicillin and 10 mg/ml streptomycin) (Sigma, St. Louis, Mo.). For tissue culture passage, monolayer cells are detached by gentle trypsinization, resuspended in complete media, and split 1:10 into new T-flasks. […]
(§3) In the in vitro studies the uptake rate of each amino acid compound is measured in each tumor line, as well as the dominant transport mechanisms of each tumor cell line. After trypsinization, cells are resuspended in serum-free media, then counted on a hemocytometer, with viability assessed through Trypan blue staining. […] The vials are placed in a Cobra-II gamma counter (Packard, Meriden, Conn.), with the activity per cell number determined. […] Saline washes are performed as described above, and the filtered cells radioactivity determined on the gamma counter. […]

MB468 breast carcinoma = test: in vitro amino acid uptake, MDA MB 468 cells; assay type: cell-based, human
Source text: as §1, §2, §3

[1] = system: A549 Lung Tumor Cells Implanted SC in SCID Mice; test: tissue distribution, A549 tumor-bearing SCID mice; assay type: in vivo
Protocol: For the in vitro amino acid uptake studies, all cells can be grown to monolayer confluency in T-175 culture flasks [Corning, Corning, N.Y.] (approx. 1×10^8 cells/flask) in Dulbecco's Modified Eagle's Medium (DMEM) [Sigma, St. Louis, Mo.] in a humidified incubator (37° C., 5% CO2/95% air). Media are supplemented with 10% fetal calf serum [Hyclone, Logan, Utah], and antibiotics (10,000 U/ml penicillin and 10 mg/ml streptomycin) (Sigma, St. Louis, Mo.). For tissue culture passage, monolayer cells are detached by gentle trypsinization, resuspended in complete media, and split 1:10 into new T-flasks. Cultures are passaged weekly, and fed fresh media every 2 to 3 days. To initiate tumor growth in SCID mice, 1×10^6 cells are injected s.c. bilaterally into the flanks (inguinal region) of the recipient animals using a 1 ml syringe with a 27 gauge needle. Ex vivo experiments can be performed with animals containing tumors weighing between 500 mg and 1 g, as estimated by caliper measurement (tumor weight=(π/6)*abc, where a, b and c are the tumor length, width and height, respectively). The compounds of the invention are further evaluated for their tumor specificity and selectivity in tumor-bearing animal models. One can evaluate and compare the transport, accumulation and tissue distribution of each compound in these in vivo animal studies. Tissue distribution of the compounds is measured in SCID mice (average weight, 20-25 g) bearing human tumors as follows. The candidate radioligands (20 uCi in 0.4 ml 0.9% NaCl) are injected into the tail vein of tumor-bearing mice. […] Tissues (blood, heart, liver, lungs, kidneys, bone, thyroid, muscle, brain and tumor) are excised, rinsed in saline, and blotted dry. The tissues are weighed, placed into 12×75 mm glass vials, the radioactivity determined with a gamma counter, and the percent dose/gram calculated. Total activities of blood and muscle are calculated by assuming that they account for 7% and 40% of the total body mass, respectively.

% Dose/g blood ([1]; 15 Minutes): 3.39 % Dose/g | % Dose/g bone ([1]; 15 Minutes): 2.06 % Dose/g | % Dose/g brain ([1]; 15 Minutes): 0.26 % Dose/g | % Dose/g heart ([1]; 15 Minutes): 2.70 % Dose/g | % Dose/g kidney ([1]; 15 Minutes): 10.11 % Dose/g | % Dose/g liver ([1]; 15 Minutes): 3.15 % Dose/g | % Dose/g lung ([1]; 15 Minutes): 4.23 % Dose/g | % Dose/g muscle ([1]; 15 Minutes): 1.38 % Dose/g | % Dose/g pancreas ([1]; 15 Minutes): 48.45 % Dose/g | % Dose/g spleen ([1]; 15 Minutes): 7.90 % Dose/g | % Dose/g tumor ([1]; 15 Minutes): 5.11 % Dose/g | % Dose/g blood ([1]; 30 Minutes): 2.42 % Dose/g | % Dose/g bone ([1]; 30 Minutes): 1.63 % Dose/g | % Dose/g brain ([1]; 30 Minutes): 0.25 % Dose/g | % Dose/g heart ([1]; 30 Minutes): 2.23 % Dose/g | % Dose/g kidney ([1]; 30 Minutes): 5.47 % Dose/g | % Dose/g liver ([1]; 30 Minutes): 2.70 % Dose/g | % Dose/g lung ([1]; 30 Minutes): 3.03 % Dose/g | % Dose/g muscle ([1]; 30 Minutes): 1.43 % Dose/g | % Dose/g pancreas ([1]; 30 Minutes): 44.17 % Dose/g | % Dose/g spleen ([1]; 30 Minutes): 5.02 % Dose/g | % Dose/g tumor ([1]; 30 Minutes): 4.28 % Dose/g | % Dose/g blood ([1]; 60 Minutes): 1.08 % Dose/g | % Dose/g bone ([1]; 60 Minutes): 1.01 % Dose/g | % Dose/g brain ([1]; 60 Minutes): 0.16 % Dose/g | % Dose/g heart ([1]; 60 Minutes): 1.41 % Dose/g | % Dose/g kidney ([1]; 60 Minutes): 2.24 % Dose/g | % Dose/g liver ([1]; 60 Minutes): 1.46 % Dose/g | % Dose/g lung ([1]; 60 Minutes): 1.40 % Dose/g | % Dose/g muscle ([1]; 60 Minutes): 0.90 % Dose/g | % Dose/g pancreas ([1]; 60 Minutes): 20.63 % Dose/g | % Dose/g spleen ([1]; 60 Minutes): 2.85 % Dose/g | % Dose/g tumor ([1]; 60 Minutes): 3.04 % Dose/g | % Dose/g blood ([1]; 120 Minutes): 0.40 % Dose/g | % Dose/g bone ([1]; 120 Minutes): 0.62 % Dose/g | % Dose/g brain ([1]; 120 Minutes): 0.14 % Dose/g | % Dose/g heart ([1]; 120 Minutes): 0.85 % Dose/g | % Dose/g kidney ([1]; 120 Minutes): 1.02 % Dose/g | % Dose/g liver ([1]; 120 Minutes): 0.58 % Dose/g | % Dose/g lung ([1]; 120 Minutes): 0.56 % Dose/g | % Dose/g muscle ([1]; 120 Minutes): 0.77 % Dose/g | % Dose/g pancreas ([1]; 120 Minutes): 9.80 % Dose/g | % Dose/g spleen ([1]; 120 Minutes): 1.48 % Dose/g | % Dose/g tumor ([1]; 120 Minutes): 2.30 % Dose/g
Compound: NC1(C(=O)O)CCC1[18F] [Anti-R,S 2-[^18F]FACBC, (R,S) anti-1-amino-2-[^18F]fluorocyclobutyl-1-carboxylic acid]
% Dose Uptake/0.5e6 Cells (A549 lung carcinoma; A549, No inhibitor): 8.89 +/− 0.36 % Dose Uptake/0.5e6 Cells | % Dose Uptake/0.5e6 Cells (A549 lung carcinoma; A549, inhibitor BCH (10 mM)): 3.99 +/− 0.39 % Dose Uptake/0.5e6 Cells | % Dose Uptake/0.5e6 Cells (A549 lung carcinoma; A549, inhibitor MeAlB (10 mM)): 6.93 +/− 0.20 % Dose Uptake/0.5e6 Cells | % Dose Uptake/0.5e6 Cells (MB468 breast carcinoma; MDA MB 468, No inhibitor): 7.37 +/− 0.21 % Dose Uptake/0.5e6 Cells | % Dose Uptake/0.5e6 Cells (MB468 breast carcinoma; MDA MB 468, inhibitor BCH (10 mM)): 1.67 +/− 0.36 % Dose Uptake/0.5e6 Cells | % Dose Uptake/0.5e6 Cells (MB468 breast carcinoma; MDA MB 468, inhibitor MeAlB (10 mM)): 3.02 +/− 0.55 % Dose Uptake/0.5e6 Cells
